In US4731109A, “Herbicidal 2-haloacetanilides” (Monsanto Company, priority 1982, dated 1988):

What was measured:
Type in all cases: in vivo
Quackgrass = assay: Greenhouse pre-emergence GR15/GR85 selectivity test; details: Table IV
Source text: (§1) A good grade of top soil is placed in aluminum pans and compacted to a depth of three-eighths to one-half inch from the top of the pan. On the top of the soil is placed a number of seeds or vegetative propagules of various plant species. The soil required to level fill the pans after seeding or adding vegetative propagules is weighed into a pan. The soil and a known amount of the active ingredient applied in a solvent or as a wettable powder suspension are thoroughly mixed, and used to cover the prepared pans. […] As an alternative procedure, the overhead irrigation may be omitted. Observations are made about 2-3 weeks after seeding and treatment.
(§2) A further guide to the effectiveness of a chemical as a selective herbicide is the "selectivity factor" ("SF") for a herbicide in given crops and weeds. The selectivity factor is a measure of the relative degree of crop safety and weed injury and is expressed in terms of the GR15 /GR85 ratio, i.e., the GR15 rate for the crop divided by the GR85 rate for the weed, both rates in kg/ha (lb/A). In the tables below, selectivity factors are shown in parenthesis following the GR85 rate for each weed; the symbol "NS" indicates "non-selective". Marginal or undetermined selectivity is indicated by a dash (--).
(§3) These weeds are commonly associated with such major crops as corn and soybeans. […] The test procedure was the same as described for Tables II and III but modified by the application of an initial overhead irrigation equivalent to 1/4" (0.64 cm) rainfall; subsequent watering was accomplished by subirrigation. "NS" means non-selective within the test limits.
(§4) Unless otherwise noted; greenhouse tests in Table VI and in other tables below involved herbicide treatments by soil incorporation and an initial overhead irrigation followed by subirrigation as described above.

Yellow Nutsedge = assay: as above; details: Table IV
Source text: as §1, §2, §3, §4

common purslane = assay: as above; details: Table XV
In short: (§5)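 Pre-emergence soil-incorporation test: seeded pans were covered with topsoil mixed with active ingredient (in solvent or as wettable powder), overhead-irrigated (0.64 cm) or not, then subirrigated. Plants were scored about 2-3 weeks after treatment. GR15/GR85 rates are in kg/ha, and selectivity factor is crop GR15 divided by weed GR85.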

common ragweed = assay: as above; details: Table XV; for selectivity factor (GR15/GR85): in rape
In short: as §5

prickly sida = assay: as above; details: Table XV
In short: as §5

redroot pigweed = assay: as above; details: Table XV; for selectivity factor (GR15/GR85): in rape
In short: as §5

lima beans = assay: as above; details: Table XVI
Source text: (§6) A good grade of top soil is placed in aluminum pans and compacted to a depth of three-eighths to one-half inch from the top of the pan. On the top of the soil is placed a number of seeds or vegetative propagules of various plant species. The soil required to level fill the pans after seeding or adding vegetative propagules is weighed into a pan. The soil and a known amount of the active ingredient applied in a solvent or as a wettable powder suspension are thoroughly mixed, and used to cover the prepared pans. After treatment, the pans are given an initial overhead irrigation of eater, equivalent to one-fourth inch (0.64 cm) rainfall, then watered by subirrigation as need to give adequate moisture for germination and growth. As an alternative procedure, the overhead irrigation may be omitted. Observations are made about 2-3 weeks after seeding and treatment.
(§7) In the discussion and tables of data below, reference is made to herbicide application rates symbolized as "GR15 " and "GR85 "; these rates are given in kilograms per hectare (kg/ha) which are convertible into pounds per acre (lbs/A) by dividing the kg/ha rate by 1.12.
as §2
(§8) Additionally, pre-emergence herbicidal data from other tests have established that compounds according to this invention also selectively suppress quackgrass, yellow nutsedge and/or other weeds in one or more of the crops cotton, peanuts, bush beans and/or rape. For example, in Table VI are presented data showing the herbicidal selectivity of the compounds of Examples 1 and 2 against quackgrass in rape and snap beans. Unless otherwise noted; greenhouse tests in Table VI and in other tables below involved herbicide treatments by soil incorporation and an initial overhead irrigation followed by subirrigation as described above.
(§9) Additional greenhouse tests were made to test certain compounds of this invention against a plurality of problem weeds in peanuts and lima beans; except for fall panicum, the test weeds are particularly resistant weeds; the test data is set forth in Table XVI.
(§10) In Table XVI, the selectivity factors for the test compounds for each weed in lima beans is shown as the first or upper value in parenthesis and the selectivity factors for each weed in peanuts is shown as the second or lower value in parenthesis for each compound. For example, the selectivity factor for the compound of Example 3 for seedling johnsongrass in lima beans is 2.1 and in peanuts, >4.9; the selectivity factor for Texas panicum in lima beans is 1.1 and in peanuts, >2.6, etc.

peanuts = assay: as above; details: Table XVI
Source text: as §6, §7, §2, §8, §9, §10

soybeans = assay: Herbicidal effect in a variety of soil types; details: Table XVII B
[1] = quackgrass in corn, Replicate #1
[2] = quackgrass in corn, Replicate #2
[3] = quackgrass in soybeans, Replicate #1
[4] = quackgrass in soybeans, Replicate #2
[5] = yellow nutsedge in corn, Replicate #1
[6] = yellow nutsedge in corn, Replicate #2
[7] = yellow nutsedge in soybeans, Replicate #1
[8] = yellow nutsedge in soybeans, Replicate #2

| Compound | GR85 (Quackgrass; Replicate #1) | GR85 (Quackgrass; Replicate #2) | selectivity factor (GR15/GR85) (Quackgrass; [1]) | selectivity factor (GR15/GR85) (Quackgrass; [2]) | selectivity factor (GR15/GR85) (Quackgrass; [3]) | selectivity factor (GR15/GR85) (Quackgrass; [4]) | GR85 (Yellow Nutsedge; Replicate #1) | GR85 (Yellow Nutsedge; Replicate #2) | selectivity factor (GR15/GR85) (Yellow Nutsedge; [5]) | GR85 Rate (common purslane) | GR85 Rate (common ragweed) | selectivity factor (GR15/GR85) (common ragweed) | GR85 Rate (prickly sida) | GR85 Rate (redroot pigweed) | selectivity factor (GR15/GR85) (redroot pigweed) | GR15 Rate (lima beans) | GR15 Rate (peanuts) | GR15 (soybeans; Florida muck) | GR15 (soybeans; Florida sand) | GR15 (soybeans; Wabash silty clay) | also measured |
| --- | --- | --- | --- | --- | --- | --- | --- | --- | --- | --- | --- | --- | --- | --- | --- | --- | --- | --- | --- | --- | --- |
| CCCOCN(C(=O)CCl)c1c(C)cccc1C(F)(F)F [Example 3, N--(n-propoxymethyl)-2'-trifluoromethyl-6'-methyl-2-chloroacetanilide] | 0.12 Kg/Ha | 0.13 Kg/Ha | 6.5 | 5.5 | 9 | 8.5 | 0.11 Kg/Ha | 0.21 Kg/Ha | 7 | 0.70 Kg/Ha | 0.49 Kg/Ha | 1.8 | > 1.12 Kg/Ha | 0.39 Kg/Ha | 2.3 | 0.49 Kg/Ha | > 1.12 Kg/Ha | > 2.2 Kg/Ha | 2.0 Kg/Ha | 2.0 Kg/Ha | selectivity factor (GR15/GR85) (Yellow Nutsedge; [6]): 3.5; selectivity factor (GR15/GR85) (Yellow Nutsedge; [7]): 10; selectivity factor (GR15/GR85) (Yellow Nutsedge; [8]): 5; selectivity factor (GR15/GR85) (common purslane; in rape): 1.3; selectivity factor (GR15/GR85) (prickly sida; in rape): NS (non-selective) |
| Cc1cccc(C(F)(F)F)c1N(COC(C)C)C(=O)CCl [Example 4, N--(isopropoxymethyl)-2'-trifluoromethyl-6'-methyl-2-chloroacetanilide] | 0.33 Kg/Ha | 0.18 Kg/Ha | 5 | 11 | 3 | 9.5 | 0.28 Kg/Ha | 0.22 Kg/Ha | 6 | > 1.12 Kg/Ha | 1.03 Kg/Ha | > 1.1 | > 1.12 Kg/Ha | 0.50 Kg/Ha | > 2.2 | > 1.12 Kg/Ha | 0.98 Kg/Ha | > 2.2 Kg/Ha | 2.2 Kg/Ha | 3.0 Kg/Ha | selectivity factor (GR15/GR85) (Yellow Nutsedge; [6]): 8.5; selectivity factor (GR15/GR85) (Yellow Nutsedge; [7]): 4; selectivity factor (GR15/GR85) (Yellow Nutsedge; [8]): 7.5; GR15 (soybeans; Drummer silty clay): 2.2 Kg/Ha; GR15 (soybeans; Ray silt loam): 3.0 Kg/Ha; GR15 (soybeans; Sarpy silty clay): 2.2 Kg/Ha |
| Cc1cccc(C(F)(F)F)c1N(COCC(C)C)C(=O)CCl [Example 5, N--(isobutoxymethyl)-2'-trifluoromethyl-6'-methyl-2-chloroacetanilide] | – | – | – | – | – | – | – | – | – | > 1.12 Kg/Ha | 0.98 Kg/Ha | > 1.1 | > 1.12 Kg/Ha | 0.50 Kg/Ha | > 2.2 | > 1.12 Kg/Ha | 0.56 Kg/Ha | > 2.0 Kg/Ha | 3.0 Kg/Ha | 2.2 Kg/Ha | GR15 (soybeans; Drummer silty clay): 2.2 Kg/Ha; GR15 (soybeans; Ray silt loam): 2.0 Kg/Ha; GR15 (soybeans; Sarpy silty clay): 3.0 Kg/Ha |
